Seven molecules from patent publication US8409649B2, “Off-note blocking sensory organic compounds” (Givaudan S.A., priority 2007, dated 2013) can be followed below.

For test [1], the target named is T1, human TAS2R44 bitter taste receptor (Homo sapiens, UniProt P59538, L162M).
T1 construct: The TAS2R44 construct contains RSS tag, TAS2R44, and the HSV tag which are fused in frame; expressed in transfected cells; host or cells: HEK293T/Galpha16-gustducin44 cells, stably transfected with pcDNA3.1Zeo-TAS2R44
T1 sequence (P59538 with tags, fused parts or gaps L162M): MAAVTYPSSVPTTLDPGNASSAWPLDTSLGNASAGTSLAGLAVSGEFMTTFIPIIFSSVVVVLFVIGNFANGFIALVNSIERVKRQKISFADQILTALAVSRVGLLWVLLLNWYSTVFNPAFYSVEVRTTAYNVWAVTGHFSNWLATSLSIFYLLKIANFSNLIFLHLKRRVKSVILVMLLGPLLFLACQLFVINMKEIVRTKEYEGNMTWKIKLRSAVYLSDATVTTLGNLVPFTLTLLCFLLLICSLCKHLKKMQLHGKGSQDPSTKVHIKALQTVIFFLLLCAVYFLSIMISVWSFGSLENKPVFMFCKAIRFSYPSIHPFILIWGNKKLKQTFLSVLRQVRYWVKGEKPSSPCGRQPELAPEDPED
As to the kind of experiment: TAS2R44 bitter taste receptor assay for IC50 determination (Fluo-4 calcium assay). The format is cell-based. As to the method:
A receptor screen with concentration-response analysis was performed and from results inhibitory concentration (IC) IC50 values can be calculated by nonlinear regression using the function f(x)=(a−d)/(1+(x/C)^nh)+d; with a=minimum signal, d=maximum signal, nh=hill coefficient, C=IC50. and x=concentration of antagonist.
IC50 is the molar concentration of an antagonist which produces 50% of the maximum possible inhibitory response for that antagonist.
The full length gene of human TAS2R44 was amplified by polymerase chain reaction (PCR) using gene-specific primers that span the entire coding region as described in WO 2004/029087.
The TAS2R44 cDNA was subcloned into an expression cassette based on either of the following plasmids/expression vectors: pcDNA3.1Zeo (Invitrogen). These vectors contain within their multiple cloning sites the nucleotide sequence coding for the first 45 amino acids of the rat somatostatin receptor subtype 3 (RSS tag) to facilitate cell surface targeting of the transgene (SEQ ID #4) and the nucleotide sequence coding for the herpes simplex virus (HSV) glycoprotein D epitope (HSV epitope in aminoterminal to carboxyterminal direction, HSV tag). (SEQ ID #3) for facilitating immunocytochemical detection.
The TAS2R44 construct contains RSS tag, TAS2R44, and the HSV tag which are fused in frame to allow translation into the receptor protein and the resulting receptor cDNA. This transfected expression vector is called pcDNA3.1Zeo-TAS2R44 (SEQ ID #1) and allows for expression of the TAS2R44 protein (SEQ ID #2).
A cell line that stably expresses the human bitter taste receptor (TAS2R44) was generated by transfecting pcDNA3.1Zeo-TAS2R44 into HEK293T/Gα16-gustducin 44 cells (both formed as described in under 1) above. The host cell line HEK-293T is commercially available from the American […] (catalog #CRL-1573).
Fluo-4 AM (Invitrogen) is a fluorescent indicator of intracellular calcium dynamics (change in concentration) and allows monitoring changes in the calcium concentration, particularly an increase in response to receptor activation occurring after agonist exposure.
At day 0, the HEK293T cell line stably expressing Gα16-gustducin44 and TAS2R44 formed as described under 2) was seeded in antibiotic-free growth medium (standard DMEM with 10% (v/v) heat-inactivated fetal bovine serum, 2 mM L-glutamine […]) into black wall/clear bottom 96-well plates, coated with poly(ethylenimine) (0.005% v/v) at a concentration of 15,000 cells per well and incubated for 48 hours in humidified atmosphere (37° C., 5% CO2).
At the time of the assay, the growth medium was discarded and the cells were further incubated in a humidified atmosphere (37° C., 5% CO2) for 1 hour with 50 μl of loading buffer consisting of 1.5 μM Fluo-4 AM and 2.5 μM probenicid (Sigma-Aldrich) in DMEM.
Afterwards, the 96-well plate was washed 5 times with 200 μl of assay buffer (130 mM NaCl, 5 mM KCl, 10 mM HEPES, 2 mM CaCl2, and 5 mM dextrose, pH 7.4) per well, using an automated plate washer (BioTek). The plate was further incubated for 30 minutes at room temperature in the dark to allow for complete de-esterification of the Fluo-4. Afterwards the plate was washed 5 times with 200 μl of assay buffer per well, and reconstituted with 180 μl of assay buffer per well.
For assay reading, the plate was placed in a Fluorometric Imaging Plate Reader (FLIPR) (FLIPR-TETRA™, Molecular Devices), and receptor activation was initiated by addition of 20 μl of a tenfold concentrated agonist stock solution (to give the desired agonist end concentration when added to the 180 microliter assay buffer volume), which was prepared in assay buffer.
Fluorescence was continuously monitored for 20 seconds to give a signal baseline (averaged to give F0) prior to agonist addition and for 120 seconds after agonist addition. […]

Test [2] has as its system panel of bitter sensitive individuals. As to the kind of experiment: Sensory evaluation, forced choice test in water with sucralose. The format is in vivo. The following applies: 13 ppm in water with sucralose 1 mM, 3 mM, 7 mM. Here is the method:
The bitter blocker (13 ppm) was tested in water with sucralose in concentrations of 1 mM, 3 mM, and 7 mM by a panel of bitter sensitive individuals (15) in two replications per each concentration. The samples were compared to negative controls without bitter blocker and panelists were instructed to choose the less bitter sample in a forced choice test.

The mark [3] stands for this setting: agonist not stated, read-out: IC50 when tested with the TAS2R44 bitter taste receptor.

For orientation: IC50 means the midpoint of a concentration-inhibition curve.

Like-named read-outs stand apart in the source and are kept apart here.

For `CC1(C(=O)O)CC1CC1CC2CC2(C)C1(C)C` (stereo not shown) [1-methyl-2-((1,2,2-trimethylbicyclo[3.1.0]hexan-3-yl)methyl)cyclopropanecarboxylic acid], the half-maximal inhibitory concentration (IC50) in test [1] (setting [3]) lay in the range of 0.1 to 20 µM.
The same measure, in the same setting: for `CC1CCC(CC(=O)O)CC1C` (stereo not shown) [2-(3,4-dimethylcyclohexyl)acetic acid] the value was 0.1 to 20 µM; for `CC1=CCCC(C)(C)C1CCC(C)C(=O)O` (stereo not shown) [2-methyl-4-(2,6,6-trimethylcyclohex-2-enyl)butanoic acid], 0.1 to 20 µM; for `CC1CCCC(C)(C)C1CCC(=O)O` (stereo not shown) [3-(2,2,6-trimethylcyclohexyl)propanoic acid], 0.1 to 20 µM.
`CC1=CCC(C/C=C/C(=O)O)C1(C)C` (stereo not shown) [4-(2,2,3-trimethylcyclopent-3-enyl)but-2-enoic acid]: the IC50 was 0.1 to 20 µM in test [1] (setting [3]) and “within the same range” in test [1] (sucralose (50 mM) as agonist, same range as example 4). In addition, the “effect on bitterness vs negative control without bitter blocker” value in test [2] was “significantly reduce bitterness”. Moreover, in test [2] (forced choice, 15 individuals, two replications), the “panelists that chose the sample with bitter blocker as less bitter” value is 22/30.
Regarding `CC1CCC(CCCC(=O)O)C1(C)C` (stereo not shown) [4-(2,2,3-trimethylcyclopentyl)butanoic acid], the IC50 in test [1] (setting [3]) is 0.1 to 20 µM.
On the same count and under the same terms, in the case of `CC1CCCC(C)(C)C1CCCC(=O)O` (stereo not shown) [4-(2,2,6-trimethylcyclohexyl)butanoic acid] it was 0.1 to 20 µM.
